Reference: PubChem BioAssay (NCI)
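At the GI50, growth is halved. TGI: total growth inhibition.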

Key:
Assay in all cases: NCI-60 cell line screen, 384-well format
A549 NSCLC = test system: A549 NSCLC
SF-268 CNS = test system: SF-268 CNS
SN12C renal = test system: SN12C renal
SK-MEL-5 melanoma = test system: SK-MEL-5 melanoma
SK-MEL-28 melanoma = test system: SK-MEL-28 melanoma
CCRF-CEM leukemia = test system: CCRF-CEM leukemia
KM12 colon = test system: KM12 colon
UACC-257 melanoma = test system: UACC-257 melanoma
SR leukemia = test system: SR leukemia
NCI-H460 NSCLC = test system: NCI-H460 NSCLC
MCF7 breast = test system: MCF7 breast
IGROV1 ovarian = test system: IGROV1 ovarian
NCI-H23 lung = test system: NCI-H23 lung
PC-3 prostate = test system: PC-3 prostate
ACHN renal = test system: ACHN renal
786-0 renal = test system: 786-0 renal
SNB-75 CNS = test system: SNB-75 CNS
SNB-19 CNS = test system: SNB-19 CNS
HCT-116 colon = test system: HCT-116 colon
OVCAR-8 ovarian = test system: OVCAR-8 ovarian
M14 melanoma = test system: M14 melanoma
COLO 205 colon = test system: COLO 205 colon
OVCAR-4 ovarian = test system: OVCAR-4 ovarian
NCI/ADR-RES ovarian = test system: NCI/ADR-RES ovarian
OVCAR-5 ovarian = test system: OVCAR-5 ovarian
EKVX NSCLC = test system: EKVX NSCLC
SK-OV-3 ovarian = test system: SK-OV-3 ovarian
NCI-H522 lung = test system: NCI-H522 lung
CAKI-1 renal = test system: CAKI-1 renal
TK-10 renal = test system: TK-10 renal
HCT-15 colon = test system: HCT-15 colon
OVCAR-3 ovarian = test system: OVCAR-3 ovarian
RPMI-8226 leukemia = test system: RPMI-8226 leukemia
MOLT-4 leukemia = test system: MOLT-4 leukemia
HL-60(TB) leukemia = test system: HL-60(TB) leukemia
K-562 leukemia = test system: K-562 leukemia
A498 renal = test system: A498 renal
SF-539 CNS = test system: SF-539 CNS
MDA-MB-231 breast = test system: MDA-MB-231 breast
HCC-2998 colon = test system: HCC-2998 colon
MALME-3M melanoma = test system: MALME-3M melanoma
LOX IMVI melanoma = test system: LOX IMVI melanoma
HS 578T breast = test system: HS 578T breast
UACC-62 melanoma = test system: UACC-62 melanoma
T-47D breast = test system: T-47D breast
HOP-92 NSCLC = test system: HOP-92 NSCLC
SK-MEL-2 melanoma = test system: SK-MEL-2 melanoma
HT29 colon = test system: HT29 colon
NCI-H322M lung = test system: NCI-H322M lung
SW-620 colon = test system: SW-620 colon
DU-145 prostate = test system: DU-145 prostate
NCI-H226 lung = test system: NCI-H226 lung

CN(C)CCN(C)CC(C)(C)C(=O)/C=C/c1ccc(Cl)cc1
GI50 (A549 NSCLC): 3.3 µM | TGI (A549 NSCLC): 11.1 µM | GI50 (SF-268 CNS): 2.39 µM | TGI (SF-268 CNS): 5.29 µM | GI50 (SN12C renal): 2.09 µM | TGI (SN12C renal): 5.98 µM | GI50 (SK-MEL-5 melanoma): 1.9 µM | TGI (SK-MEL-5 melanoma): 4.08 µM | GI50 (SK-MEL-28 melanoma): 3.06 µM | TGI (SK-MEL-28 melanoma): 10.2 µM | GI50 (CCRF-CEM leukemia): 1.68 µM | TGI (CCRF-CEM leukemia): 3.05 µM | GI50 (KM12 colon): 2.45 µM | TGI (KM12 colon): 5.05 µM | GI50 (UACC-257 melanoma): 2.36 µM | TGI (UACC-257 melanoma): 4.96 µM | GI50 (SR leukemia): 1.42 µM | TGI (SR leukemia): 2.73 µM | GI50 (NCI-H460 NSCLC): 2.03 µM | TGI (NCI-H460 NSCLC): 4.12 µM | GI50 (MCF7 breast): 17.2 µM | TGI (MCF7 breast): 31.2 µM | GI50 (IGROV1 ovarian): 2.53 µM | TGI (IGROV1 ovarian): 6.1 µM | GI50 (NCI-H23 lung): 5.84 µM | TGI (NCI-H23 lung): 18.2 µM | GI50 (PC-3 prostate): 2.62 µM | TGI (PC-3 prostate): 5.93 µM | GI50 (ACHN renal): 2.02 µM | TGI (ACHN renal): 7.29 µM | GI50 ([…]-0 renal): 2.91 µM | TGI (786-0 renal): 9.33 µM | GI50 (SNB-75 CNS): 2.91 µM | TGI (SNB-75 CNS): 7.32 µM | GI50 (SNB-19 CNS): 2.93 µM | TGI (SNB-19 CNS): 9.62 µM | GI50 (HCT-116 colon): 2 µM | TGI (HCT-116 colon): 4.18 µM | GI50 (OVCAR-8 ovarian): 2.24 µM | TGI (OVCAR-8 ovarian): 4.8 µM | GI50 (M14 melanoma): 2.07 µM | TGI (M14 melanoma): 4.06 µM | GI50 (COLO 205 colon): 5.88 µM | TGI (COLO 205 colon): 17.1 µM | GI50 (OVCAR-4 ovarian): 2.37 µM | TGI (OVCAR-4 ovarian): 5.73 µM | GI50 (NCI/ADR-RES ovarian): 2.06 µM | TGI (NCI/ADR-RES ovarian): 3.98 µM | GI50 (OVCAR-5 ovarian): 7.14 µM | TGI (OVCAR-5 ovarian): 19.7 µM | GI50 (EKVX NSCLC): 2.14 µM | TGI (EKVX NSCLC): 5.07 µM | GI50 (SK-OV-3 ovarian): 2.24 µM | TGI (SK-OV-3 ovarian): 5.95 µM | GI50 (NCI-H522 lung): 1.34 µM | TGI (NCI-H522 lung): 2.77 µM | GI50 (CAKI-1 renal): 2.92 µM | TGI (CAKI-1 renal): 12 µM | GI50 (TK-10 renal): 2.44 µM | TGI (TK-10 renal): 6.06 µM | GI50 (HCT-15 colon): 5.08 µM | TGI (HCT-15 colon): 17.8 µM | GI50 (OVCAR-3 ovarian): 1.75 µM | TGI (OVCAR-3 ovarian): 4.03 µM | GI50 (RPMI-8226 leukemia): 1.71 µM | TGI (RPMI-8226 leukemia): 3.17 µM | GI50 (MOLT-4 leukemia): 1.76 µM | TGI (MOLT-4 leukemia): 3.2 µM | GI50 (HL-60(TB) leukemia): 1.94 µM | TGI (HL-60(TB) leukemia): 3.37 µM | GI50 (K-562 leukemia): 1.72 µM | TGI (K-562 leukemia): 3.44 µM | GI50 (A498 renal): 2.78 µM | TGI (A498 renal): 7.47 µM | GI50 (SF-539 CNS): 10.5 µM | TGI (SF-539 CNS): 22.4 µM | GI50 (MDA-MB-231 breast): 3.1 µM | TGI (MDA-MB-231 breast): 8.03 µM | GI50 (HCC-2998 colon): 4.45 µM | TGI (HCC-2998 colon): 13.7 µM | GI50 (MALME-3M melanoma): 4.76 µM | TGI (MALME-3M melanoma): 14.6 µM | GI50 (LOX IMVI melanoma): 0.764 µM | TGI (LOX IMVI melanoma): 2.12 µM | GI50 (HS 578T breast): 2.55 µM | TGI (HS 578T breast): 6.02 µM | GI50 (UACC-62 melanoma): 1.91 µM | TGI (UACC-62 melanoma): 3.75 µM | GI50 (T-47D breast): 17.9 µM | TGI (T-47D breast): 31.9 µM | GI50 (HOP-92 NSCLC): 2.09 µM | TGI (HOP-92 NSCLC): 4.65 µM | GI50 (SK-MEL-2 melanoma): 1.55 µM | TGI (SK-MEL-2 melanoma): 3.32 µM | GI50 (HT29 colon): 3.26 µM | TGI (HT29 colon): 11.8 µM | GI50 (NCI-H322M lung): 3.11 µM | TGI (NCI-H322M lung): 7.72 µM | GI50 (SW-620 colon): 2.09 µM | TGI (SW-620 colon): 4.45 µM | GI50 (DU-145 prostate): 3.22 µM | TGI (DU-145 prostate): 8.86 µM | GI50 (NCI-H226 lung): 5.39 µM | TGI (NCI-H226 lung): 16.2 µM
